Laboratory results as given in the supplement of paper PMC10307832.

Legend:
Assay in all cases: relative viability (nuclei count vs DMSO), 5 days (fraction); higher = more cells survive
[1] = system: A-427
How it was run: (§1)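 Lung cancer cell lines in 1536-well plates were dosed by pin tool the day after seeding, either with one drug alone or with a fixed anchor-drug dose plus five library-drug doses (not always all listed) in √10 steps. After 5 days, cells were fixed and their nuclei stained in one step (final 0.05% Triton X-100, 1% formaldehyde, 1 ug/ml Hoechst), then counted on 4× images. Relative viability is the nuclei count in treated wells divided by that in vehicle wells. Values are medians of duplicate plates.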

[2] = system: NCI-H2023
How it was run: as §1

[3] = system: LC-2-ad
How it was run: as §1

[4] = system: ABC-1
How it was run: as §1

[5] = system: NCI-H596
How it was run: as §1

[6] = system: NCI-H727
How it was run: as §1

[7] = system: PC-3 [JPC-3]
How it was run: as §1

[8] = system: NCI-H520
How it was run: as §1

[9] = system: NCI-H650
How it was run: as §1

[10] = system: 201T
How it was run: as §1

[11] = system: NCI-H441
How it was run: as §1

[12] = system: NCI-H1915
How it was run: as §1

[13] = system: NCI-H460
How it was run: as §1

[14] = system: NCI-H661
How it was run: as §1

[15] = system: H3255
How it was run: as §1

[16] = system: BEN
How it was run: as §1

[17] = system: NCI-H1944
How it was run: as §1

[18] = system: NCI-H2087
How it was run: as §1

[19] = system: NCI-H1650
How it was run: as §1

[20] = system: NCI-H1651
How it was run: as §1

[21] = system: LCLC-97TM1
How it was run: as §1

O=c1cc(N2CCOCC2)oc2c(-c3cccc4c3sc3ccccc34)cccc12 + Nc1ncn([C@H]2C[C@H](O)[C@@H](CO)O2)c(=O)n1 [Decitabine] (partner 2 µM)
relative viability ([1]; first compound 0.01 µM): 0.606
relative viability ([1]; first compound 0.03162 µM): 0.552
relative viability ([1]; first compound 0.1 µM): 0.58
relative viability ([1]; first compound 0.3162 µM): 0.591
relative viability ([1]; first compound 1 µM): 0.592
relative viability ([2]; first compound 0.01 µM): 0.252
relative viability ([2]; first compound 0.03162 µM): 0.224
relative viability ([2]; first compound 0.1 µM): 0.248
relative viability ([2]; first compound 0.3162 µM): 0.251
relative viability ([2]; first compound 1 µM): 0.232
relative viability ([3]; first compound 0.01 µM): 0.736
relative viability ([3]; first compound 0.03162 µM): 0.801
relative viability ([3]; first compound 0.1 µM): 0.79
relative viability ([3]; first compound 0.3162 µM): 0.822
relative viability ([3]; first compound 1 µM): 0.893
relative viability ([4]; first compound 0.01 µM): 1.01
relative viability ([4]; first compound 0.03162 µM): 1.15
relative viability ([4]; first compound 0.1 µM): 1.31
relative viability ([4]; first compound 0.3162 µM): 0.959
relative viability ([4]; first compound 1 µM): 1.09
relative viability ([5]; first compound 0.01 µM): 0.974
relative viability ([5]; first compound 0.03162 µM): 1.07
relative viability ([5]; first compound 0.1 µM): 1.09
relative viability ([5]; first compound 0.3162 µM): 1.03
relative viability ([5]; first compound 1 µM): 1.05
relative viability ([6]; first compound 0.01 µM): 0.749
relative viability ([6]; first compound 0.03162 µM): 0.914
relative viability ([6]; first compound 0.1 µM): 0.796
relative viability ([6]; first compound 0.3162 µM): 0.954
relative viability ([6]; first compound 1 µM): 0.773
relative viability ([7]; first compound 0.01 µM): 0.809
relative viability ([7]; first compound 0.03162 µM): 0.859
relative viability ([7]; first compound 0.1 µM): 0.874
relative viability ([7]; first compound 0.3162 µM): 0.814
relative viability ([7]; first compound 1 µM): 0.811
relative viability ([8]; first compound 0.01 µM): 0.59
relative viability ([8]; first compound 0.03162 µM): 0.565
relative viability ([8]; first compound 0.1 µM): 0.529
relative viability ([8]; first compound 0.3162 µM): 0.557
relative viability ([8]; first compound 1 µM): 0.525
relative viability ([9]; first compound 0.01 µM): 0.319
relative viability ([9]; first compound 0.03162 µM): 0.384
relative viability ([9]; first compound 0.3162 µM): 0.338
relative viability ([9]; first compound 1 µM): 0.303
relative viability ([10]; first compound 0.01 µM): 0.843
relative viability ([10]; first compound 0.03162 µM): 0.863
relative viability ([10]; first compound 0.1 µM): 0.83
relative viability ([10]; first compound 0.3162 µM): 0.86
relative viability ([10]; first compound 1 µM): 0.818
relative viability ([11]; first compound 0.01 µM): 0.279
relative viability ([11]; first compound 0.03162 µM): 0.255
relative viability ([11]; first compound 0.1 µM): 0.26
relative viability ([11]; first compound 0.3162 µM): 0.208
relative viability ([11]; first compound 1 µM): 0.228
relative viability ([12]; first compound 0.01 µM): 0.28
relative viability ([12]; first compound 0.03162 µM): 0.253
relative viability ([12]; first compound 0.1 µM): 0.256
relative viability ([12]; first compound 0.3162 µM): 0.291
relative viability ([12]; first compound 1 µM): 0.266
relative viability ([13]; first compound 0.01 µM): 0.509
relative viability ([13]; first compound 0.03162 µM): 0.48
relative viability ([13]; first compound 0.1 µM): 0.499
relative viability ([13]; first compound 0.3162 µM): 0.472
relative viability ([13]; first compound 1 µM): 0.51
relative viability ([14]; first compound 0.01 µM): 0.563
relative viability ([14]; first compound 0.03162 µM): 0.53
relative viability ([14]; first compound 0.1 µM): 0.599
relative viability ([14]; first compound 0.3162 µM): 0.535
relative viability ([14]; first compound 1 µM): 0.587
relative viability ([15]; first compound 0.01 µM): 0.598
relative viability ([15]; first compound 0.03162 µM): 0.715
relative viability ([15]; first compound 0.1 µM): 0.56
relative viability ([15]; first compound 0.3162 µM): 0.604
relative viability ([15]; first compound 1 µM): 0.533
relative viability ([16]; first compound 0.01 µM): 0.73
relative viability ([16]; first compound 0.03162 µM): 0.748
relative viability ([16]; first compound 0.1 µM): 0.589
relative viability ([16]; first compound 0.3162 µM): 0.76
relative viability ([16]; first compound 1 µM): 0.664
relative viability ([17]; first compound 0.01 µM): 0.488
relative viability ([17]; first compound 0.03162 µM): 0.448
relative viability ([17]; first compound 0.1 µM): 0.443
relative viability ([17]; first compound 0.3162 µM): 0.408
relative viability ([17]; first compound 1 µM): 0.481
relative viability ([18]; first compound 0.01 µM): 0.261
relative viability ([18]; first compound 0.03162 µM): 0.257
relative viability ([18]; first compound 0.1 µM): 0.336
relative viability ([18]; first compound 0.3162 µM): 0.306
relative viability ([18]; first compound 1 µM): 0.297
relative viability ([19]; first compound 0.01 µM): 0.362
relative viability ([19]; first compound 0.03162 µM): 0.384
relative viability ([19]; first compound 0.1 µM): 0.489
relative viability ([19]; first compound 0.3162 µM): 0.53
relative viability ([19]; first compound 1 µM): 0.399
relative viability ([20]; first compound 0.01 µM): 0.563
relative viability ([20]; first compound 0.03162 µM): 0.615
relative viability ([20]; first compound 0.1 µM): 0.593
relative viability ([20]; first compound 0.3162 µM): 0.642
relative viability ([20]; first compound 1 µM): 0.61
relative viability ([21]; first compound 0.01 µM): 0.261
relative viability ([21]; first compound 0.03162 µM): 0.227
relative viability ([21]; first compound 0.1 µM): 0.227
relative viability ([21]; first compound 0.3162 µM): 0.252
relative viability ([21]; first compound 1 µM): 0.235
